Several values for one entry are separate records, joined by “and”; a condition that tells them apart may be missing. Equal entries are not always repeated. Where a SMILES comes first, the peptide text is derived from it. [ ]: non-standard residue; d: D form. Hyp = O=C(O)[C@@H]1C[C@@H](O)CN1
Test system: GM-CSF
Experiment: Example 9 Luminex, LPS hPBMCs: GM-CSF
Type: cell-based, human
Protocol: Treatment Human PBMCs were pretreated with YY-101, YDE-011 and YDE-043 or reference compound; Xiidra® at various concentration (ranging from 1 nM to 100 uM) for 2 h before stimulation. An equal volume of 0.5% DMSO was used as a vehicle control. Then, the cells were treated with LPS at 5 ug/ml. The supernatants from treated cells were harvested at 24 h and placed in a 96 well for Luminex cytokine & chemokine profiling using a Luminex 200 multiplex assay (Luminex; R&D system, USA).
The main study arm with triplicate wells per group in a 24-well plate: • 1. Blank • 2. PBMC: 0.5% DMSO • 3. PBMC+LPS (5 ug/ml) • 4. PBMC+YY-101 100 uM • 5. PBMC+YY-101 10 uM • 6. PBMC+YY-101 1 uM • 7. PBMC+YY-101 0.1 uM • 8. PBMC+YY-101 0.01 uM • 9. PBMC+LPS (5 ug/ml)+Xiidra®100 uM • 10. PBMC+LPS (5 ug/ml)+Xiidra® 10 uM • 11. PBMC+LPS (5 ug/ml)+Xiidra® 1 uM • 12. PBMC+LPS (5 ug/ml)+Xiidra®0.1 uM • 13. PBMC+LPS (5 ug/ml)+Xiidra®0.01 uM • 14. PBMC+LPS (5 ug/ml)+Xiidra®0.001 uM • 15. PBMC+LPS (5 ug/ml)+YY-101 100 uM • 16. PBMC+LPS (5 ug/ml)+YY-101 10 uM • 17. PBMC+LPS (5 ug/ml)+YY-101 1 uM • 18. PBMC+LPS (5 ug/ml)+YY-101 0.1 uM • 19. PBMC+LPS (5 ug/ml)+YY-101 0.01 uM • 20. PBMC+LPS (5 ug/ml)+YY-101 0.001 uM • 21. PBMC+LPS (5 ug/ml)+YDE-011 100 uM • 22. PBMC+LPS (5 ug/ml)+YDE-011 10 uM • 23. PBMC+LPS (5 ug/ml)+YDE-011 1 uM • 24. PBMC+LPS (5 ug/ml)+YDE-011 0.1 uM • 25. PBMC+LPS (5 ug/ml)+YDE-011 0.01 uM • 26. PBMC+LPS (5 ug/ml)+YDE-011 0.001 uM • 27. PBMC+LPS (5 ug/ml)+YDE-043 100 uM • 28. PBMC+LPS (5 ug/ml)+YDE-043 10 uM • 29. PBMC+LPS (5 ug/ml)+YDE-043 1 uM • 30. PBMC+LPS (5 ug/ml)+YDE-043 0.1 uM • 31. PBMC+LPS (5 ug/ml)+YDE-043 0.01 uM • 32. PBMC+LPS (5 ug/ml)+YDE-043 0.001 uM
Multiplex assay was used to measure 30 cytokines and chemokines. The 1:2, 1:10 and 1:200 diluted cell supernatant and serial dilution of the standard were dispensed into a 96 well plate at 50 ul/well. Then, the pre-mixed cocktail of antibody-coated magnetic beads was dispensed at 50 ul/well and incubated at room temperature for 2 h in a horizontal orbital microplate shaker at 800±500 rpm. The beads were washed using a magnetic device to prevent loss. The biotin-antibody was dispensed in 50 ul of each well and incubated at room temperature for 1 h in a shaker at 800±500 rpm. After washing, streptavidin-PE was added at 50 ul/well and incubated at room temperature for 30 min in a shaker under the same conditions. Finally, after washing, wash buffer (100 ul/well) was added to the plate and incubated in a shaker for 2 min. The Luminex™ 200 setting were set according to the manufacturer's protocol. The data was calculated with a standard five-parameter logistic nonlinear regression analysis of the data (xPonent software 4.2, USA). The levels of cytokine/chemokine are normalized to the live cell counts (1×10^5 cells/mL) and presented as concentrations per mL (pg/mL or ng/mL).

[1] = PBMC + LPS(5 ug/ml) + test article 0.001 uM, Mean
[2] = PBMC + LPS(5 ug/ml) + test article 0.001 uM, single replicates
[3] = PBMC + LPS(5 ug/ml) + test article 0.01 uM, Mean
[4] = PBMC + LPS(5 ug/ml) + test article 0.01 uM, single replicates
[5] = PBMC + LPS(5 ug/ml) + test article 0.1 uM, Mean
[6] = PBMC + LPS(5 ug/ml) + test article 0.1 uM, single replicates
[7] = PBMC + LPS(5 ug/ml) + test article 1 uM, Mean
[8] = PBMC + LPS(5 ug/ml) + test article 1 uM, single replicates
[9] = PBMC + LPS(5 ug/ml) + test article 10 uM, Mean
[10] = PBMC + LPS(5 ug/ml) + test article 10 uM, single replicates
[11] = PBMC + LPS(5 ug/ml) + test article 100 uM, Mean
[12] = PBMC + LPS(5 ug/ml) + test article 100 uM, single replicates

SMILES	GM-CSF Concentration [1] [pg/mL]	GM-CSF conc/live cell [1] [pg/10^5]	GM-CSF Concentration [2]	GM-CSF conc/live cell [2]	GM-CSF Concentration [3] [pg/mL]	GM-CSF conc/live cell [3] [pg/10^5]	GM-CSF Concentration [4]	GM-CSF conc/live cell [4]	GM-CSF Concentration [5] [pg/mL]	GM-CSF conc/live cell [5] [pg/10^5]	GM-CSF Concentration [6]	GM-CSF conc/live cell [6]	GM-CSF Concentration [7] [pg/mL]	GM-CSF conc/live cell [7] [pg/10^5]	GM-CSF Concentration [8]	GM-CSF conc/live cell [8]	GM-CSF Concentration [9] [pg/mL]	GM-CSF conc/live cell [9] [pg/10^5]	GM-CSF Concentration [10]	GM-CSF conc/live cell [10]	further results
CC(C)C[C@H](NC(=O)[C@H](CCC(N)=O)NC(=O)CNC(=O)[C@@H]1C[C@@H](O)CN1)C(=O)NCC(=O)O [YDE-043] (H-[Hyp]GQLG-OH; N-terminus and C-terminus assumed)	96.8	19.6	85.3 pg/mL and 103.8 pg/mL and 101.3 pg/mL	19.4 pg/10^5 and 17.3 pg/10^5 and 22.0 pg/10^5	92.9	17.9	94.6 pg/mL and 86.1 pg/mL and 97.9 pg/mL	21.0 pg/10^5 and 13.1 pg/10^5 and 19.6 pg/10^5	92.5	17.1	87.8 pg/mL and 91.2 pg/mL and 98.4 pg/mL	17.6 pg/10^5 (2×) and 16.3 pg/10^5	91.6	17.4	89.5 pg/mL and 92.1 pg/mL and 93.3 pg/mL	15.4 pg/10^5 and 19.2 pg/10^5 and 17.6 pg/10^5	101.0	18.7	102.1 pg/mL and 96.3 pg/mL and 104.6 pg/mL	19.6 pg/10^5 and 17.8 pg/10^5 and 18.7 pg/10^5	GM-CSF Concentration [11]: 137.2 pg/mL; GM-CSF conc/live cell [11]: 21.8 pg/10^5; GM-CSF Concentration [12]: 140.1 pg/mL and 134.4 pg/mL; GM-CSF conc/live cell [12]: 22.6 pg/10^5 and 21.0 pg/10^5
CC(C)C[C@H](NC(=O)CNC(=O)[C@H](CC(C)C)NC(=O)[C@H](CCC(N)=O)NC(=O)CNC(=O)[C@@H]1C[C@@H](O)CN1)C(=O)N[C@@H](C)C(=O)NCC(=O)N1CCC[C@H]1C(=O)N[C@@H](CCCCN)C(=O)O [YDE-011] (H-[Hyp]GQLGLAGPK-OH)	97.0	18.3	92.5 pg/mL and 96.3 pg/mL and 102.1 pg/mL	20.6 pg/10^5 and 16.6 pg/10^5 and 17.6 pg/10^5	103.2	17.9	90.4 pg/mL and 108.0 pg/mL and 111.3 pg/mL	14.3 pg/10^5 and 17.4 pg/10^5 and 21.8 pg/10^5	95.6	16.7	100.5 pg/mL and 90.8 pg/mL and 95.4 pg/mL	15.2 pg/10^5 and 18.2 pg/10^5 and 16.7 pg/10^5	93.9	18.7	96.3 pg/mL and 92.5 pg/mL and 92.9 pg/mL	17.5 pg/10^5 and 19.3 pg/10^5 and 19.4 pg/10^5	98.2	18.7	103.0 pg/mL and 92.9 pg/mL and 98.8 pg/mL	19.1 pg/10^5 and 16.0 pg/10^5 and 21.0 pg/10^5	GM-CSF Concentration [11]: 135.7 pg/mL; GM-CSF conc/live cell [11]: 22.4 pg/10^5; GM-CSF Concentration [12]: 149.0 pg/mL and 127.8 pg/mL and 130.3 pg/mL; GM-CSF conc/live cell [12]: 24.4 pg/10^5 and 21.0 pg/10^5 and 21.7 pg/10^5
